# Test results as given in ChEMBL document CHEMBL3232827, “Synthesis of substituted pyrimidines as corticotropin releasing factor (CRF) receptor ligands” (Eur J Med Chem, 2014).
# Target: T1, Corticotropin-releasing factor receptor 1 (Homo sapiens, UniProt P34998)
# T1 sequence (P34998 whole entry): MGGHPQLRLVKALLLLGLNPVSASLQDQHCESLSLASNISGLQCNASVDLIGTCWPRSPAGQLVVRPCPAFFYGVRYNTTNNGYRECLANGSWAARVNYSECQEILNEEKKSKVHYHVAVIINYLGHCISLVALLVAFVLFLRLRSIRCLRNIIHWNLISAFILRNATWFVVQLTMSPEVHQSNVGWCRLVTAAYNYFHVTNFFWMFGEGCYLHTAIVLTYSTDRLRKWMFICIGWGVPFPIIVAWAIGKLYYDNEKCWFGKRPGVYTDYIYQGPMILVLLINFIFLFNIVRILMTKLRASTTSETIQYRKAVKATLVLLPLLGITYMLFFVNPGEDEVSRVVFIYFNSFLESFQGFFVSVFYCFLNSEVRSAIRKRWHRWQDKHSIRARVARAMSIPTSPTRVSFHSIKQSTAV
# Assay: (§1) Displacement of [125I]Tyr0sauvagine from human CRF1 receptor expressed in HEK293 cell membrane after 120 mins by gamma scintillation counting analysis
# Format: cell membranes
row,Structure (SMILES),IC50
1,CCSc1c(Nc2c(C)cc(C)cc2C)nc(C)nc1N(CCOC)CCOC,589 nM
2,COCCN(CCOC)c1nc(C)nc(Nc2c(C)cc(C)cc2C)c1SC,275 nM
3,CCCCN(CC)c1nc(C)nc2c1c(C)c(C)n2-c1c(C)cc(C)cc1C [ANTALARMIN],18.6 nM

# Continued, values first:
row,IC50,Structure (SMILES)
1,245 nM,CCCN(CC1CC1)c1nc(C)nc(Nc2c(C)cc(C)cc2C)c1SCC
2,537 nM,CCCN(CCC)c1nc(C)nc(Nc2c(C)cc(C)cc2C)c1SCC

# Target: T2, Corticotropin-releasing factor receptor 1 (Homo sapiens) (UniProt P34998)
# T2 sequence (whole entry): T1 sequence (P34998 whole entry)
# Assay: as §1
# Format: cell membranes
row,Structure (SMILES),inhibition
1,CCSc1c(Nc2c(C)cc(C)cc2C)nc(C)nc1N(CCOC)CCOC,Dose-dependent effect
2,COCCN(CCOC)c1nc(C)nc(Nc2c(C)cc(C)cc2C)c1SC,Dose-dependent effect

# Other lines, results leading:
row,inhibition,Structure (SMILES)
1,Dose-dependent effect,CCCN(CC1CC1)c1nc(C)nc(Nc2c(C)cc(C)cc2C)c1SCC
2,Dose-dependent effect,CCCN(CCC)c1nc(C)nc(Nc2c(C)cc(C)cc2C)c1SCC

# Target: T2, Corticotropin-releasing factor receptor 1 (Homo sapiens)
# Assay: Displacement of [125I]Tyr0sauvagine from human CRF1 receptor expressed in HEK293 cell membrane at 500 nM after 120 mins by gamma scintillation counting analysis
# Format: cell membranes
row,Structure (SMILES),inhibition
1,CCCN(CC1CC1)c1nc(C)nc(Nc2ccc(C(C)C)cc2Br)c1SC,< 50%
2,CCCCN(CC)c1nc(C)nc(Nc2ccc(C(C)C)cc2Br)c1SC,< 50%
3,CCSc1c(Nc2ccc(C(C)C)cc2Br)nc(C)nc1N(CC)CC,< 50%
4,CCCN(CC1CC1)c1nc(C)nc(Nc2ccc(C(C)C)cc2Br)c1SCC,< 50%
5,CCN(CC)c1nc(C)nc(Nc2ccc(C(C)C)cc2Br)c1SC,< 50%
6,CCCCN(CC)c1nc(C)nc(Nc2ccc(C(C)C)cc2Br)c1SCC,< 50%
7,COCCN(CCOC)c1nc(C)nc(Nc2ccc(C(C)C)cc2Br)c1SC,< 50%
8,CCSc1c(Nc2ccc(C(C)C)cc2Br)nc(C)nc1N(CCOC)CCOC,< 50%
9,CCCN(CCC)c1nc(C)nc(Nc2ccc(C(C)C)cc2Br)c1SC,< 50%
10,CCCN(CCC)c1nc(C)nc(Nc2ccc(C(C)C)cc2Br)c1SCC,< 50%

# Second part, the compound after the results:
row,inhibition,Structure (SMILES)
1,< 50%,CCCCN(CC)c1nc(C)nc(Nc2c(C)cc(C)cc2C)c1SC
2,< 50%,CCSc1c(Nc2c(C)cc(C)cc2C)ncnc1N(CCOC)CCOC
3,< 50%,CCCCN(CC)c1ncnc(Nc2c(C)cc(C)cc2C)c1SCC
4,< 50%,CCSc1c(Nc2c(C)cc(C)cc2C)ncnc1N(CC)CC
5,< 50%,CCCN(CC1CC1)c1ncnc(Nc2c(C)cc(C)cc2C)c1SC
6,< 50%,CCCN(CCC)c1nc(C)nc(Nc2c(C)cc(C)cc2C)c1SC
7,< 50%,CCCCN(CC)c1ncnc(Nc2c(C)cc(C)cc2C)c1SC
8,< 50%,COCCN(CCOC)c1ncnc(Nc2c(C)cc(C)cc2C)c1SC
9,< 50%,CCN(CC)c1nc(C)nc(Nc2c(C)cc(C)cc2C)c1SC
10,< 50%,CCSc1c(Nc2c(C)cc(C)cc2C)nc(C)nc1N(CC)CC
11,< 50%,CCCN(CCC)c1ncnc(Nc2c(C)cc(C)cc2C)c1SCC
12,< 50%,CCCCN(CC)c1nc(C)nc(Nc2c(C)cc(C)cc2C)c1SCC
13,< 50%,CCCN(CC1CC1)c1nc(C)nc(Nc2c(C)cc(C)cc2C)c1SC
14,< 50%,CCCN(CCC)c1ncnc(Nc2c(C)cc(C)cc2C)c1SC
